Entries after “also recorded” stand apart in the source; their conditions may differ.
What was measured:
Assay type in all cases: in vivo, human
[1] = system: absence seizures in patients diagnosed with encephalocele; assay: Open label, expanded-access program: absence seizure frequency; conditions: for Seizure frequency, Absence: baseline 6.8
Description: (§1) Subjects were required to be on one or more AEDs at stable doses for a minimum of two weeks prior to baseline and to have stable vagus nerve stimulation (VNS) settings and ketogenic diet ratios for a minimum of four weeks prior to baseline.
(§2) A maximum dose of 50 mg/kg/day could be utilised for patients who were tolerating the medication but had not achieved seizure control; these patients had further weekly titration by 5 mg/kg/day.
(§3) Modifications were made to concomitant AEDs as per clinical indication.
(§4) Seizure frequency, intensity, and duration were recorded by caregivers in a diary during a baseline period of at least 28 days. Changes in seizure frequency relative to baseline were calculated after at least 2 weeks and at defined timepoints of treatment.
(§5) Patients may be defined as responders if they had more than 50% reduction in seizure frequency compared to baseline. The percent change in seizure frequency was calculated as follows: […]
(§6) The percent change of seizure frequency may be calculated for any time interval where seizure number has been recorded. For the purpose of this example the percent change of seizure frequency for the end of the treatment period was calculated as follows: […]

[2] = system: seizures associated with encephalocele; assay: Open label, expanded-access program: seizures overall; conditions: two patients
Description: as §1, §2, §3, §4, §5, §6

[3] = system: focal seizures with impairment in patients diagnosed with encephalocele; assay: Open label, expanded-access program: frequency of focal seizures with impairment; design: Seizure frequency, Focal with impairment: unit not given here
Description: as §1, §3, §4, §5, §6

[4] = system: focal seizures with secondary generalisation in patients diagnosed with encephalocele; assay: Open label, expanded-access program: frequency of focal seizures with secondary generalisation; conditions: Patient 2, baseline 85.0
Description: as §1, §2, §3, §4, §5, §6

For `C=C(C)[C@@H]1CCC(C)=C[C@H]1c1c(O)cc(CCCCC)cc1O` [CBD, cannabidiol], the “Seizure frequency, Absence” value ([1]; Patient 1, 2 weeks, CBD 15.0 mg/kg/day) was 6.0, the “Seizure frequency, Absence” value ([1]; Patient 1, 4 weeks, CBD 25.0 mg/kg/day) was 8.0 and the “Seizure frequency, Absence” value ([1]; Patient 1, 8 weeks, CBD 30.0 mg/kg/day) was 0. For the same compound, the “Seizure frequency, Absence” value ([1]; Patient 1, 12 weeks, CBD 25.0 mg/kg/day) was 0, the “Seizure frequency, Absence” value ([1]; Patient 1, 24 weeks, CBD 15.0 mg/kg/day) was 1.6 and the “Seizure frequency, Absence” value ([1]; Patient 1, 36 weeks, CBD 10.0 mg/kg/day) was 0. The “Seizure frequency, Absence” value ([1]; Patient 1, 48 weeks, CBD 10.0 mg/kg/day) was 0, the “Seizure frequency, Absence” value ([1]; Patient 1, 60 weeks, CBD 15.0 mg/kg/day) was 0 and the “Seizure frequency, Absence” value ([1]; Patient 1, 84 weeks, CBD 15.0 mg/kg/day) was 0. The “seizure freedom from absence seizures” value ([1]; Patient 1, after 36 weeks of treatment) was “completely seizure free from absence seizures”, the “reduction in absence seizures over the treatment period” value ([1]; Patient 1, treated for 144 weeks, relative to baseline) was 100% and the “effect on frequency of absence seizures (in words)” value ([1]; patients with encephalocele) was “effective in reducing the frequency; also recorded: significant reduction”. The “effect on number of seizures associated with encephalocele (in words)” value [2] was “significantly reduce the number of seizures”, the “reductions in seizures over period of treatment” value ([2]; absence and focal seizures with impairment, relative to baseline) was 20-100% and the “Seizure frequency, Focal with impairment” value ([3]; Patient 1, 4 weeks, CBD 25.0 mg/kg/day, baseline 92.5) was 104.0. For the same compound, the “Seizure frequency, Focal with impairment” value ([3]; Patient 1, 8 weeks, CBD 30.0 mg/kg/day, baseline 92.5) was 92.8, the “Seizure frequency, Focal with impairment” value ([3]; Patient 1, 12 weeks, CBD 25.0 mg/kg/day, baseline 92.5) was 98.0 and the “Seizure frequency, Focal with impairment” value ([3]; Patient 1, 24 weeks, CBD 15.0 mg/kg/day, baseline 92.5) was 93.1. For the same compound, the “Seizure frequency, Focal with impairment” value ([3]; Patient 1, 60 weeks, CBD 15.0 mg/kg/day, baseline 92.5) was 95.0, the “Seizure frequency, Focal with impairment” value ([3]; Patient 2, 2 weeks, CBD 10.0 mg/kg/day, baseline 6.0) was 10.0 and the “Seizure frequency, Focal with impairment” value ([3]; Patient 2, 4 weeks, CBD 20.0 mg/kg/day, baseline 6.0) was 6.8. For the same compound, the “Seizure frequency, Focal with impairment” value ([3]; Patient 2, 8 weeks, CBD 25.0 mg/kg/day, baseline 6.0) was 13.5, the “Seizure frequency, Focal with impairment” value ([3]; Patient 2, 12 weeks, CBD 25.0 mg/kg/day, baseline 6.0) was 25.1 and the “Seizure frequency, Focal with impairment” value ([3]; Patient 2, 16 weeks, CBD 25.0 mg/kg/day, baseline 6.0) was 14.6. The “Seizure frequency, Focal with impairment” value ([3]; Patient 2, 24 weeks, CBD 25.0 mg/kg/day, baseline 6.0) was 12.9, the “Seizure frequency, Focal with impairment” value ([3]; Patient 2, 48 weeks, CBD 46.0 mg/kg/day, baseline 6.0) was 14.5 and the “Seizure frequency, Focal with impairment” value ([3]; Patient 2, 60 weeks, CBD 24.0 mg/kg/day, baseline 6.0) was 18.1. For the same compound, the “Seizure frequency, Focal with impairment” value ([3]; Patient 2, 72 weeks, CBD 25.0 mg/kg/day, baseline 6.0) was 13.4, the “Seizure frequency, Focal with impairment” value ([3]; Patient 2, 84 weeks, CBD 25.0 mg/kg/day, baseline 6.0) was 9.8 and the “Seizure frequency, Focal with impairment” value ([3]; Patient 2, 96 weeks, CBD 25.0 mg/kg/day, baseline 6.0) was 22.9. For the same compound, the “Seizure frequency, Focal with impairment” value ([3]; Patient 2, 108 weeks, CBD 20.0 mg/kg/day, baseline 6.0) was 9.4, the “Seizure frequency, Focal with impairment” value ([3]; Patient 2, 120 weeks, CBD 20.0 mg/kg/day, baseline 6.0) was 11.3 and the “Seizure frequency, Focal with impairment” value ([3]; Patient 2, 144 weeks, CBD 22.0 mg/kg/day, baseline 6.0) was 4.8. The “reduction in focal seizures with impairment over the treatment period” value ([3]; Patient 2, treated for 144 weeks, relative to baseline) was 20%, the “effect on frequency of focal seizures with impairment (in words)” value ([3]; patients with encephalocele) was “effective in reducing the frequency; also recorded: significant reduction” and the “Seizure frequency, Focal with secondary generalisation” value ([4]; 2 weeks, CBD 10.0 mg/kg/day) was 90.0. The “Seizure frequency, Focal with secondary generalisation” value ([4]; 4 weeks, CBD 20.0 mg/kg/day) was 28.8, the “Seizure frequency, Focal with secondary generalisation” value ([4]; 8 weeks, CBD 25.0 mg/kg/day) was 90.2 and the “Seizure frequency, Focal with secondary generalisation” value ([4]; 12 weeks, CBD 25.0 mg/kg/day) was 197.9. The “Seizure frequency, Focal with secondary generalisation” value ([4]; 16 weeks, CBD 25.0 mg/kg/day) was 212.8, the “Seizure frequency, Focal with secondary generalisation” value ([4]; 24 weeks, CBD 25.0 mg/kg/day) was 145.6 and the “Seizure frequency, Focal with secondary generalisation” value ([4]; 48 weeks, CBD 46.0 mg/kg/day) was 143.1. The “Seizure frequency, Focal with secondary generalisation” value ([4]; 60 weeks, CBD 24.0 mg/kg/day) was 141.0, the “Seizure frequency, Focal with secondary generalisation” value ([4]; 72 weeks, CBD 25.0 mg/kg/day) was 148.6 and the “Seizure frequency, Focal with secondary generalisation” value ([4]; 84 weeks, CBD 25.0 mg/kg/day) was 143.1. The “Seizure frequency, Focal with secondary generalisation” value ([4]; 96 weeks, CBD 25.0 mg/kg/day) was 117.8, the “Seizure frequency, Focal with secondary generalisation” value ([4]; 108 weeks, CBD 20.0 mg/kg/day) was 119.1 and the “Seizure frequency, Focal with secondary generalisation” value ([4]; 120 weeks, CBD 20.0 mg/kg/day) was 146.6. The “Seizure frequency, Focal with secondary generalisation” value ([4]; 144 weeks, CBD 22.0 mg/kg/day) was 91.1.

Reference: patent US20230372367A1 (GW Research Limited, priority 2020, published 2023)
